These results are taken from US5658906A, “Cysteine protease and serine protease inhibitors” (Cephalon, Inc., priority 1996, dated 1997).

Molecules are shown by their SMILES.

The experiment addresses T1, Calpain I (Homo sapiens, UniProt P07384).
T1 construct: Calpain I was purified from human red blood cells; from tissue; host or cells: human red blood cells (packed, outdated)
T1 sequence (P07384 1-714): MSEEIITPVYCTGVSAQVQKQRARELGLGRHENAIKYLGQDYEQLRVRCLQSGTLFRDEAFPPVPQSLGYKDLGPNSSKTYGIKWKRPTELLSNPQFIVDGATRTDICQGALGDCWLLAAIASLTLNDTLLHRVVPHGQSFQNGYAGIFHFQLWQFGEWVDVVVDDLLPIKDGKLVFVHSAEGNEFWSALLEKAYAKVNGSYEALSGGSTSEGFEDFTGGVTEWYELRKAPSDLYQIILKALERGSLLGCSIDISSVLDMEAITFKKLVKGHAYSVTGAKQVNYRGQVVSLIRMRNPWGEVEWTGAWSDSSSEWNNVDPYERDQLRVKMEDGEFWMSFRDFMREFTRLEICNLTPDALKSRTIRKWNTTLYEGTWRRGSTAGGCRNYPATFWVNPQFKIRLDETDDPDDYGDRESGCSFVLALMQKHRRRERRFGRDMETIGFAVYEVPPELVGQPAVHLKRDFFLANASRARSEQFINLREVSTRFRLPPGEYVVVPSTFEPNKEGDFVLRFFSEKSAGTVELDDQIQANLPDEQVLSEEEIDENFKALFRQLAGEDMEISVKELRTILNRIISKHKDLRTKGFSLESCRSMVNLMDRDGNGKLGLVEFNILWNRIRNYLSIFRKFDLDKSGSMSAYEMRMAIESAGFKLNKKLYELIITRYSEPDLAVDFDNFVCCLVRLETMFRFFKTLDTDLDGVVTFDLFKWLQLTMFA
T1 sequence (P04632 1-268 partner): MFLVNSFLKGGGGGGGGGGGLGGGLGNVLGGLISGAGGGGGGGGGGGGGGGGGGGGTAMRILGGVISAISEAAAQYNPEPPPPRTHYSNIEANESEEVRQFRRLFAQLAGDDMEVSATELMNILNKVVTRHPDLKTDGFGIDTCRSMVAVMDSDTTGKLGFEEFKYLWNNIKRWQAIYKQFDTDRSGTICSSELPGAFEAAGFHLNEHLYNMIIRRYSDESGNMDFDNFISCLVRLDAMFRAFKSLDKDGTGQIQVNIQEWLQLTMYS
The experiment is described as follows: Inhibition and rate of inactivation of calpain I (Succ-Leu-Tyr-MNA hydrolysis). It is filed as biochemical. As to conditions: mean of three or more independent analyses, corrected for substrate, k2 = kapp(1+[S]/Km), read-out: k2 (second order rate constant of inactivation), A = Calpain I.
With `CC[C@H](NC(=O)[C@H](CC(C)C)NC(=O)OCc1ccccc1)C(=O)COn1nnc2ccccc21` [Example 5, 1-[N-[N-Benzyloxycarbonyl-L-leucyl]-3S-3-amino-2-oxopentyloxy] benzotriazole], the kinact/KI amounted to 63000 M⁻¹ s⁻¹.
Turning to `CC(C)C[C@H](NC(=O)OCc1ccccc1)C(=O)N[C@@H](Cc1ccccc1)C(=O)COn1nnc2ccccc2c1=O` [Example 28, 1-[N-[N-Benzyloxycarbonyl-L-leucyl]-3S-4-phenyl-3-amino-2-oxobutyloxy]-3-benzotriazin-4-one], the kinact/KI amounted to 122000 M⁻¹ s⁻¹.
For `CC(C)C[C@H](NC(=O)OCc1ccccc1)C(=O)N[C@@H](Cc1ccccc1)C(=O)COn1nnc2cccnc21` [Example 6, 3-[N-[N-Benzyloxycarbonyl-L-leucyl]-3S-4-phenyl-3-amino-2-oxobutyloxy]-3H-triazolo[4,5-b]pyridine] the value was 184000 M⁻¹ s⁻¹; for `CC(C)C[C@H](NC(=O)OCc1ccccc1)C(=O)N[C@@H](Cc1ccccc1)C(=O)COn1nnc2ccccc21` [Example 3, 1-[N-[N-Benzyloxycarbonyl-L-leucyl]-3S-4-phenyl-3-amino-2-oxobutyloxy]benzotriazole], 150000 M⁻¹ s⁻¹.
